# Data as given in US7531554B2, “4-oxoquinoline compound and use thereof as HIV integrase inhibitor” (Japan Tobacco Inc., priority 2004, dated 2009).
# Where a name gives a salt, the structure may show the parent alone.
# System: not given
# Experiment: not given
# Conditions: not given
row,SMILES,melting point [°C]
1,O=C(O)c1cn(CCO)c2ccc(Cc3cccc(Cl)c3Cl)cc2c1=O,247 to 249

# Molecular target: T1, HIV integrase (Human immunodeficiency virus type 1 group M subtype B, UniProt P12497, F1332H)
# T1 construct: HIV integrase full length gene (J. Virol., 67, 425-437 (1993)) in which phenylalanine at codon 185 was substituted by histidine; made in house; host or cells: Escherichia coli BL21(DE3)
# Experiment: Determination of enzyme (HIV integrase) inhibitory activity
# Format: biochemical
# Conditions: recombinant integrase protein (F185H), donor DNA/target DNA, absorbance at 450 nm
# In short: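 Full-length HIV integrase bearing F185H mutation, E. coli-expressed and purified, preincubated with compound on plate-bound biotinylated donor DNA for 60 min at 37 °C; digoxigenin-labelled target DNA then added for 10 min. Strand transfer detected by peroxidase anti-digoxigenin ELISA at 450 nm; IC50 from inhibition versus no-compound and no-enzyme controls.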
row,SMILES,IC50 [nM]
1,"CO[C@H](C)[C@@H](CO)n1cc(C(=O)O)c(=O)c2cc(Cc3cccc(Cl)c3F)ccc21 [Example 2-15, 6-(3-chloro-2-fluorobenzyl)-1-((1R,2R)-1-(hydroxymethyl)-2-methoxypropyl)-4-oxo-1,4-dihydroquinoline-3-carboxylic acid]",5.2
2,"CC(C)[C@@H](CO)n1cc(C(=O)O)c(=O)c2cc(Cc3cccc(Cl)c3F)c(OCC(F)(F)F)cc21 [Example 4-62, 6-(3-chloro-2-fluorobenzyl)-1-((1S)-1-(hydroxymethyl)-2-methylpropyl)-4-oxo-7-(2,2,2-trifluoroethyloxy)-1,4-dihydroquinoline-3-carboxylic acid]",5.5
3,"COC[C@@H](CO)n1cc(C(=O)O)c(=O)c2cc(Cc3cccc(Cl)c3F)ccc21 [Example 2-14, 6-(3-chloro-2-fluorobenzyl)-1-((1R)-1-(hydroxymethyl)-2-methoxyethyl)-4-oxo-1,4-dihydroquinoline-3-carboxylic acid]",13
4,"CC(C)[C@@H](CO)n1cc(C(=O)O)c(=O)c2cc(Cc3cccc(Cl)c3F)c(OC3CCOCC3)cc21 [Example 4-36, 6-(3-chloro-2-fluorobenzyl)-1-((1S)-1-(hydroxymethyl)-2-methylpropyl)-4-oxo-7-(tetrahydropyran-4-yloxy)-1,4-dihydroquinoline-3-carboxylic acid]",5.4
5,"COc1cc2c(cc1Cc1cccc(Cl)c1F)c(=O)c(C(=O)O)cn2[C@H](CO)CCSC [Example 2-12, 6-(3-chloro-2-fluorobenzyl)-1-((1S)-1-(hydroxymethyl)-3-(methylthio)propyl)-7-methoxy-4-oxo-1,4-dihydroquinoline-3-carboxylic acid]",5.7
6,"CC(C)[C@@H](CO)n1cc(C(=O)O)c(=O)c2cc(Cc3cccc(Cl)c3F)c(OCCCN)cc21 [Example 4-19, 7-(3-aminopropoxy)-6-(3-chloro-2-fluorobenzyl)-1-((1S)-1-(hydroxymethyl)-2-methylpropyl)-4-oxo-1,4-dihydroquinoline-3-carboxylic acid hydrochloride]",4.6
7,"CC(C)[C@@H](CO)n1cc(C(=O)O)c(=O)c2cc(Cc3cccc(Cl)c3F)c(OCCCO)cc21 [Example 7-4, 6-(3-chloro-2-fluorobenzyl)-1-((1S)-1-(hydroxymethyl)-2-methylpropyl)-7-(3-hydroxypropoxy)-4-oxo-1,4-dihydroquinoline-3-carboxylic acid]",3.6
8,"COc1cc2c(cc1C(O)c1cccc(Cl)c1F)c(=O)c(C(=O)O)cn2[C@H](CO)C(C)C (single isomer, unassigned) [Example 7-7]",17
9,"CC(C)[C@@H](CO)n1cc(C(=O)O)c(=O)c2cc(Cc3cccc(Cl)c3F)c(N3CC[C@@H](O)C3)cc21 [Example 4-23, 6-(3-chloro-2-fluorobenzyl)-1-((1S)-1-(hydroxymethyl)-2-methylpropyl)-7-((3R)-3-hydroxypyrrolidin-1-yl)-4-oxo-1,4-dihydroquinoline-3-carboxylic acid]",27
10,"CC(C)[C@@H](CO)n1cc(C(=O)O)c(=O)c2cc(Cc3cccc(Cl)c3F)c(OC3CCNCC3)cc21 [Example 4-25, 6-(3-chloro-2-fluorobenzyl)-1-((1S)-1-(hydroxymethyl)-2-methylpropyl)-4-oxo-7-(piperidin-4-yloxy)-1,4-dihydroquinoline-3-carboxylic acid]",4.1
11,"CC(C)[C@@H](CO)n1cc(C(=O)O)c(=O)c2cc(Cc3cccc(Cl)c3F)c(OCCN3CCNCC3)cc21 [Example 4-33, 6-(3-chloro-2-fluorobenzyl)-1-((1S)-1-(hydroxymethyl)-2-methylpropyl)-4-oxo-7-(2-(piperazin-1-yl)ethoxy)-1,4-dihydroquinoline-3-carboxylic acid dihydrochloride]",5.7
12,"COc1cc2c(cc1Cc1ccc(O)c(Cl)c1F)c(=O)c(C(=O)O)cn2[C@H](CO)C(C)C [Example 1-4, 6-(3-chloro-2-fluoro-4-hydroxybenzyl)-1-((1S)-1-(hydroxymethyl)-2-methylpropyl)-7-methoxy-4-oxo-1,4-dihydroquinoline-3-carboxylic acid]",25
